Data set [1] deals with MM cells. Conditions: cited from earlier work.
A short description of data set [2]: Cellular assays (potency of 17-AAG versus 17-AG). The class given is cell-based.
For data set [3], the system named is adult patients with solid tumors. The following applies: patients treated at 56 mg/m^2; cited from earlier work.
A short description of data set [4]: clinical. The procedure:
PK assessments included the following tests. […] The total number of PK samples collected was approximately 115 mL of whole blood (7-8 tablespoons). If a patient experienced a potentially drug-related SAE, additional PK samples were collected. Blood was drawn from the contralateral arm to the infusion site using an indwelling catheter to avoid multiple needle sticks. […] The blood tube was inverted several times and the tube placed in wet ice immediately pending separation of the plasma. If a catheter was used for blood collection, the fluid in the catheter was completely withdrawn prior to each sample collection and discarded. Plasma samples were kept on wet ice during collection and centrifugation. Plasma samples were split into two cryovials prior to freezing at −70° C.

Data set [5] relates to patients with advanced solid tumors. The following applies: population PK analysis; cited from earlier work.
For data set [6] the test system is unchanged. Conditions: 80 mg/m^2 dose level, cited from earlier work.
Where [7] appears, read: 17-AG metabolite, Cohorts 3 & 4, 17-AAG 150 mg/m^2, Max.
Setting [8] is: 17-AG metabolite, Cohorts 3 & 4, 17-AAG 150 mg/m^2, Median.
[9] abbreviates: 17-AG metabolite, Cohorts 3 & 4, 17-AAG 150 mg/m^2, Min.

In the case of `CC(C)C[C@H](NC(=O)[C@H](Cc1ccccc1)NC(=O)c1cnccn1)B(O)O` [bortezomib], in data set [1] (pre-clinical studies), the “stress response of MM cells” value is given as “triggers significant Hsp90 up-regulation”. Moreover, the “effect on drug resistance of MM cells” value in data set [1] (preclinical and clinical studies) was “can overcome resistance of MM cells to conventional or high-dose cytotoxic chemotherapy”.

Broadly, the AUC(0-t) is the area under the concentration-time curve up to a stated or last time point. The half-life is the time in which the quantity being followed falls by half. A word on the Cmax: it is the maximum level reached in the sampled fluid or tissue. `CO[C@H]1/C=C\C=C(/C)C(=O)NC2=CC(=O)C(N)=C(C[C@@H](C)C[C@H](OC)[C@H](O)[C@@H](C)/C=C(\C)[C@@H]1OC(N)=O)C2=O` [17-AG, 17-aminogeldanamycin]: the “relative potency of 17-AAG and 17-AG” value in data set [2] was “equipotent in cellular assays”. In addition, in data set [3], the Clearance is on record as 30.8 L/h/m^2, the VZ is reported as 203 L/m^2, the “average AUC” value was 5,558 nM*h and the “average t1/2” value is 8.6 h. In data set [4] (setting [7]), the AUCext came out at 16.0%, the AUCextra is on record as 2,604 ng/mL * h, the AUCtotal is reported as 16,323 ng/mL * h and the Lz is 0.1512. In data set [4] (setting [8]), the AUCext was 5.0%, the AUCtotal is 3,253 ng/mL * h and the Lz is on record as 0.1200. In addition, in data set [4] (setting [9]), the AUCext stood at 2.2%, the AUCtotal came to 980 ng·h/mL and the Lz is reported as 0.0765. For the same molecule, the “average ratio of AUCtotal for the 17-AG to AUCtotal for the parent drug 17-AAG” value in data set [4] (data of Tables 2 and 3, cohorts 1-4) was 82.5±90.5%. Also, the AUC(0-t) in data set [4] (human, plasma, intravenous, 100 mg/m2, AUClast, 17-AG metabolite, Cohorts 1 & 2, 17-AAG 100 mg/m^2, Mean) was 3480 ng·h/mL. The half-life in data set [4] (human, plasma, intravenous, Terminal elimination half-life, 17-AG metabolite, cohorts 1-4 combined) was 6.52 ± 1.74 h. Moreover, in data set [4] (plasma profiles after 17-AAG infusion), the “elimination in plasma profiles” value was “much slower elimination”. For the same molecule, the Clearance in data set [5] was 21.3 L/h. Further, the t1/2 in data set [6] was 1.75 h. In addition, the peak concentration (Cmax) in data set [6] (read-out: plasma Cmax) is 607 nM.

Source of the values: US20060252740A1 (priority 2005, published 2006).
